These results are taken from patent US4327222A, “3,4-Diarylisoxazol-5-acetic acids and process for making same” (priority 1979, dated 1982).

The ED50 is the dose at which the effect has come halfway, by size or by number of responders. As a reminder, the LD50 is the dose expected to kill half of the subjects tested.

“Also recorded” adds a separate entry of the source. Read-outs that look alike come from different tables or passages of the source.

The test system of series [1] is cotton pellet granuloma. The series is described as follows: Antigranuloma: cotton pellet granuloma test in the rat. The class given is in vivo. As to the method: (§1) 138, 405 (1962), both in the rat. […] Acute toxicities are determined in rats and in mice and the LD50 's are calculated according to the method of Litchfield and Wilcoxon, J.Pharmacol.Exp. Therap. 96, 99 (1949).

Series [2] has as its system rats. The series is described as follows: in vivo. The format is in vivo. On the procedure: (§2) Acute toxicities are determined in rats and in mice and the LD50 's are calculated according to the method of Litchfield and Wilcoxon, J.Pharmacol.Exp. Therap.
Series [3] has as its system carrageenin-induced paw edema. The series is described as follows: Anti-inflammatory: carrageenin-induced paw edema test in the rat (modified Winter et al.). The settings on record: for ED50: po, read-out: ED50 p.o. Anti-inflammatory (Carrageenin). The format is in vivo. In general terms: In the carrageenan paw model, swelling and tenderness develop within hours.
Series [4] relates to yeast-induced fever. The series is described as follows: Anti-pyretic: yeast-induced fever test in rats. The class given is in vivo. The note with it: Rattus norvegicus, po, read-out: ED50 p.o. Anti-Pyretic (Yeast).
Series [5] can be described thus: in vivo. The settings on record: mouse, po, mice, read-out: Acute Toxicity (LD50) p.o. As to the method: as §1
The test system of series [6] is phenylquinone-induced muscular writhing. The series is described as follows: Analgesic: phenylquinone-induced muscular writhing test in mice (modified Siegmund et al.). The class given is in vivo. The settings on record: for ED50: Mus musculus, po, read-out: ED50 p.o. Analgesic (Phenylquinone).
Series [7] in a line: in vivo. The format is in vivo. The settings on record: rat, in vivo, po; rats; read-out: Acute Toxicity (LD50) p.o. On the procedure:
as §2

For `COc1ccc(-c2noc(CC(=O)O)c2-c2ccc(OC)cc2)cc1` [3,4,-Di(p-methoxyphenyl)isoxazol-5-acetic Acid], the “activity in antigranuloma test (in words)” value in series [1] is reported as “active in antigranuloma test”. For the same compound, the “therapeutic index LD50/anti-inflammatory ED50 (in words)” value in series [2] (LD50 / anti-inflammatory ED50) is listed as “favourable therapeutic index”. Further, the “order of toxicity (in words)” value in series [2] (rats and mice) is “low order of toxicity”. Further, the ED50 is 25 to 40 mg/kg in series [3] (Rattus norvegicus), above 120 mg/kg in series [4] and 1.8 mg/kg in series [6]. Further, the “anti-inflammatory activity (in words)” value in series [3] (rat, listed as Example 4) was “remarkable anti-inflammatory and analgesic activities; also recorded: well within the range of the same activities shown for a number of established anti-inflammatory drugs and are markedly superior to the activities of known 3-arylisoxazol-5-acetic acids”. In addition, the median lethal dose (LD50) in series [5] is 1000 mg/kg. In addition, in series [6] (mice, listed as Example 4), the “analgesic activity (in words)” value is “remarkable anti-inflammatory and analgesic activities; also recorded: well within the range of the same activities shown for a number of established anti-inflammatory drugs and are markedly superior to the activities of known 3-arylisoxazol-5-acetic acids”.
`O=C(O)Cc1onc(-c2ccccc2)c1-c1ccccc1` [3,4-Diphenylisoxazol-5-acetic Acid]: the ED50 in series [3] (rat, carrageenin paw edema) was 120 mg/kg; in series [4] (rats, yeast-induced fever), 120 mg/kg. In series [5], the LD50 was 670 mg/kg.
Consider `COc1ccc(-c2cc(CC(=O)O)on2)cc1` [3-(p-methoxyphenyl)isoxazol-5-acetic acid], for which the ED50 in series [3] (rat, carrageenin paw edema) was above 135 mg/kg; in series [4] (rats, yeast-induced fever) it was above 120 mg/kg; in series [6] (mice, phenylquinone writhing), 60 mg/kg.
Take `O=C(O)Cc1cc(-c2ccccc2)no1` [3-Phenylisoxazol-5-acetic Acid, 3-phenylisoxazol-5-acetic acid]: in series [2] (p.o., rats, 100% mortality), the “Acute Toxicity p.o. (dose with 100% mortality)” value came to 1500 mg/kg. The ED50 in series [3] (rat, carrageenin paw edema) was 70 to 80 mg/kg; in series [4] (rats, yeast-induced fever), above 135 mg/kg; in series [6] (mice, phenylquinone writhing) it was 60 to 90 mg/kg.
`CC(=O)Oc1ccccc1C(=O)O` [Aspirin]: the LD50 in series [7] amounted to 1740 mg/kg. In addition, the ED50 in series [3] (rat, carrageenin paw edema) lay within 60 to 90 mg/kg; in series [6] (mice, phenylquinone writhing) it was 70 to 100 mg/kg.
Take `CC(C)Cc1ccc(C(C)C(=O)O)cc1` (centres unmarked) [Ibuprofen]: the ED50 in series [3] (rat, carrageenin paw edema) was 15 to 30 mg/kg; in series [4] (rats, yeast-induced fever), 15 mg/kg; in series [6] (mice, phenylquinone writhing), 15 to 25 mg/kg.
`COc1ccc2c(c1)c(CC(=O)O)c(C)n2C(=O)c1ccc(Cl)cc1` [Indomethacin]: in series [7], the LD50 amounted to 27 mg/kg. The ED50 in series [3] (Rattus norvegicus) is 7 to 9 mg/kg; in series [4], 3 to 5 mg/kg; in series [6] it was below 1 mg/kg.
`Cc1cccc(Nc2ccccc2C(=O)O)c1C` [Mefenamic Acid]: the median effective dose (ED50) in series [3] (rat, carrageenin paw edema) is 45 to 55 mg/kg; in series [4] (rats, yeast-induced fever), 7.5 to 10 mg/kg; in series [6] (mice, phenylquinone writhing), 7.5 to 10 mg/kg.
For the compound `COc1ccc2cc([C@H](C)C(=O)O)ccc2c1` [Naproxen], the ED50 in series [3] (rat, carrageenin paw edema) was 10 to 12 mg/kg; in series [4] (rats, yeast-induced fever), 15 to 20 mg/kg; in series [6] (mice, phenylquinone writhing) it was 7.5 to 10 mg/kg.
Taken in the same sequence, the figures for `COc1ccc(-c2noc(C(OC)C(=O)O)c2-c2ccc(OC)cc2)cc1` (stereo not drawn) [Sodium 3,4-Di(p-methoxyphenyl)isoxazol-5α-methoxyacetate] were 120 mg/kg, above 120 mg/kg and 60 mg/kg.
For the compound `CC1=C(CC(=O)O)c2cc(F)ccc2/C1=C\c1ccc([S+](C)[O-])cc1` (centres unmarked) [Sulindac], the ED50 in series [3] (rat, carrageenin paw edema) lay in the range of 20 to 30 mg/kg; in series [4] (rats, yeast-induced fever) it was 7.5 to 10 mg/kg; in series [6] (mice, phenylquinone writhing), 7.5 to 10 mg/kg.
